Assay results reported in patent publication US5585374A, “Amide derivatives” (John Wyeth Brother, Limited, priority 1992, dated 1996).
pIC50: −log10 of the molar value.

Experiments:
[1] = system: α1 sites; test: affinity for α1 sites (procedure of Marrow et al.); type: binding
[2] = target: T1, 5-HT1A receptor (Rattus norvegicus, UniProt P19327); test: 5-HT1A receptor binding activity in rat hippocampal membrane homogenate
T1 construct: rat hippocampal membrane homogenate; from tissue; host or cells: rat hippocampus (membrane homogenate)
T1 sequence (P19327 1-422): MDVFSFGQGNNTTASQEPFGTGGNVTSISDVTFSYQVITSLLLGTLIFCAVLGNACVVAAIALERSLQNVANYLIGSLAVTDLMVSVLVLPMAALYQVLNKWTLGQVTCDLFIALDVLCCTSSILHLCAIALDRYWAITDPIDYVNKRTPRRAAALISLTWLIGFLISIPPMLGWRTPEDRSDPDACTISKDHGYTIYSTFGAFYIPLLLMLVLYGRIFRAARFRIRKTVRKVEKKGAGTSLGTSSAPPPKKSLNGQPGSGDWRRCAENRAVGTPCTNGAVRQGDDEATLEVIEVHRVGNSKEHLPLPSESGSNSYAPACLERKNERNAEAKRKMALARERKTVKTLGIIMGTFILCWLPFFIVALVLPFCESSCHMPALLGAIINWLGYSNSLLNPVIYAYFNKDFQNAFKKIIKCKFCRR
Procedure: The compounds of the invention are tested for 5-HT1A receptor binding activity in rat hippocampal membrane homogenate by the method of B S Alexander and M D Wood, J Pharm Pharmacol, 1988, 40, 888-891.

[3] = target: T2, 5-HT1A receptor (Cavia porcellus, UniProt A0A286Y074); test: 5-HT1A receptor antagonism: antagonism of 5-carboxamidotryptamine in guinea-pig ileum in vitro; details: read-out: pA2 (converted)
T2 construct: in the guinea-pig ileum in vitro; from tissue; host or cells: guinea-pig ileum
T2 sequence (A0A286Y074 1-421): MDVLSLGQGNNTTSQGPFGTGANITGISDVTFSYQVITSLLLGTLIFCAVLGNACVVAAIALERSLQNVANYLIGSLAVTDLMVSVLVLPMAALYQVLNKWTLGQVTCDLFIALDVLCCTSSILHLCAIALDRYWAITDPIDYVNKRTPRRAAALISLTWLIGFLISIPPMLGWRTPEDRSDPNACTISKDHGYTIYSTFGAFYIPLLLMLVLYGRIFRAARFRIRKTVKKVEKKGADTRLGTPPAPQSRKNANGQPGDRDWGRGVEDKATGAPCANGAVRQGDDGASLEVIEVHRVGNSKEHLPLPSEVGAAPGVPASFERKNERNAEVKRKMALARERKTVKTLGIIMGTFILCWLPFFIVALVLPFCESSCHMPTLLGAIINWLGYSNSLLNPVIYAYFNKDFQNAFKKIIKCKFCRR
Procedure: The compounds are tested for 5-HT1A receptor antagonism activity in a test involving the antagonism of 5-carboxamidotryptamine in the guinea-pig ileum in vitro (based upon the procedure of Fozard et al, Br J Pharmac, 1985, 86, 601 P).

Question: With `COc1ccccc1C1CCN(CCC(C(=O)N2CCCCCC2)c2ccccc2)CC1` (stereo not drawn) [2,3,4,5,6,7-hexahydro-1-(4-(1-(1,2,3,4,5,6-hexahydro-4-(2-methoxyphenyl)pyridyl))-2-phenylbutyryl)-1H-azepine] as the molecule, how does the pIC50 [1] read?
Answer: The pIC50 was 5.97.

Question: What about the pIC50 [2] of the same molecule?
Answer: The pIC50 was 8.92.

Question: What about the Kb [3] of the same molecule?
Answer: The Kb was 0.794 nM.

Question: With `COc1ccccc1C1CCN(CCC(C(=O)N2CCCCCC2)c2ccccc2)CC1` (single isomer, unassigned; (+)) [(+)-enantiomer] as the molecule, how does the pIC50 [1] read?
Answer: Its pIC50 is 6.60.

Question: And the pIC50 [2]?
Answer: The pIC50 was 9.70.

Question: And the Kb [3]?
Answer: The Kb was 1 nM.
